Reference: patent US6676932B2, “Ultraviolet absorbent, photostabilizer, ultraviolet ray-absorbing composition, photostabilized composition and external preparation for skin” (Shiseido Co., Ltd., priority 2001, dated 2004)

Experiments:
[1] = Photostability test of aqueous solutions under daylight (Test Example 4); assay type: physicochemical; details: aqueous solution, daylight for 2 weeks (80 MJ)
Method: Aqueous solutions of the pyridazine derivative of the invention were exposed to daylight for 2 weeks (at a daylight exposure of 80 MJ). Subsequently, the remaining ratio and the change of the appearance were examined to measure the ultraviolet spectra with a spectrophotometer (solvent: water; concentration of 10 ppm and optical path length of 1 cm). The area under ultraviolet spectra curve from 290 nm to 400 nm were determined by integration to compare the area with the area before daylight exposure.
The remaining ratio and the change of the area under the ultraviolet spectrum were determined on the basis of the following standards.
⊚: 95% or more of those before daylight exposure.
◯: 90% or more to less than 95% of those before daylight exposure.
Δ: 70% or more to less than 90% of those before daylight exposure.
x: less than 70% of those before daylight exposure.

sunburn = experiment: Ultraviolet preventive effect, application test on beach in summer (Test Example 2); assay type: in vivo, human
Method: An application test was carried out on beach in summer. Equal volumes of samples were individually coated on back halves of subjects. After exposure to direct daylight, the degree of sunburn was assessed according to the following assessment standards. Each group consists of 10 subjects.
Prominently effective: none or almost no sunburn symptom was observed.
Effective: light sunburn symptom was observed.
Ineffective: strong sunburn symptom was observed.
⊚: prominently effective or effective for 80% or more of the subjects.
◯: prominently effective or effective for 50% or more to less than 80% of the subjects.
Δ: prominently effective or effective for 30% or more to less than 50% of the subjects.
x: prominently effective or effective for less than 30% of the subjects.
The aqueous phase and the alcohol phase were separately prepared and then mixed together.
Propylene glycol was added to and dissolved in ion exchange water. The resulting solution was retained at 70° C. under heating (aqueous phase). Other ingredients were mixed […]. The resulting mixture was melted under heating and retained at 70° C. (oil phase). The oil phase was added to the aqueous phase, for preliminary emulsification with a homomixer to homogeneity. Under thorough mixing, subsequently, the mixture was cooled to 30° C.

skin = experiment: Test of skin irritation: 24-hour occlusion patch test (Test Example 3 ii); assay type: in vivo, human; details: 10 wt % ultraviolet absorbent
Method: The same samples as in the Test Example 2 were used (at a 10 wt % amount of an ultraviolet absorbent).
20 Healthy male and female volunteers per one group were carried out in a 24-hour occlusion patch test, using a fin chamber on forearm curves. Assessment was done on the basis of the following assessment standards.
Mean score was determined for the assessment on the basis of the following standards.
◯: mean score of more than 0 to less than 1.
Δ: mean score of 1 or more to less than 2.
x: mean score of 2 or more.

[2] = Drug stabilization effect blended with sequestering agent (Test Examples 372 to 391); assay type: physicochemical; set-up: key to Appearance (visual determination): ◯: no change; Δ: almost no change; x: change; details: drug Salicylic acid 0.1, photostabilizer blend amount 0.03, daylight exposure (80 MJ)
Method: Then, the photostabilization effect of the pyridazine derivative in combination with sequestering agents on each drug and the change of the appearance of each composition were examined, by using the following formulation for assessment.
(§1) For observation of the change of the appearance of each test sample (determination based on visual observation) and the measurement of the remaining ratio by liquid chromatography before and after daylight exposure (80 MJ), the test sample was prepared.

[3] = Stabilization effect on perfume under daylight exposure (Test Examples 92 to 181); assay type: physicochemical; set-up: key: ◯: no change; Δ: almost no change; x: change; details: daylight exposure (80 MJ)
Method: Each test sample was prepared for observation of the change of the odor of the test sample (determined by perfume coordinator) before and after daylight exposure (80 MJ).

[4] = Drug stabilization effect under daylight exposure (Test Examples 182 to 211); assay type: physicochemical; set-up: key to Appearance (visual determination): ◯: no change; Δ: almost no change; x: change; details: photostabilizer 0.05 wt %, daylight exposure (80 MJ); for Remaining ratio (%): liquid chromatography
Method: as §1

[5] = Dye stabilization effect in blend with sequestering agents (Test Examples 212 to 275); assay type: physicochemical; details: dye Red 227 (Acid Fuchsine D) 0.0001, photostabilizer 0.01, daylight exposure (80 MJ)
How it was run: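 Colour difference (ΔE) measured by spectrophotometer in Lab coordinates before and after daylight exposure (80 MJ), relative to pre-exposure values (L1, a1, b1); appearance change also assessed visually.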

[6] = Dye stabilization effect under daylight exposure (Test Examples 6-91); assay type: physicochemical; set-up: key to Δ E: color difference ΔE in Lab vs. color before daylight exposure; key to Appearance (visual determination): ◯: no change; Δ: almost no change; x: change; details: photostabilizer 0.05 wt %, daylight exposure (80 MJ)
How it was run: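 Test samples exposed to daylight to 80 MJ; appearance judged visually. Colour measured by spectrophotometer in Lab coordinates, with ΔE calculated relative to pre-exposure values (L1, a1, b1).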

[7] = drug L-ascorbic acid 2-glucoside 2.0 wt %
[8] = drug dibutylhydroxytoluene 0.01 wt %
[9] = drug dl-α-tocopherol 2-L-ascorbic acid phosphate diester potassium salt 0.01 wt %
[10] = dye Blue 1 (Brilliant Blue FCF) 0.0001 wt %
[11] = dye Green 3 (Fast Green FCF) 0.001 wt %
[12] = dye Red 227 (Acid Fuchsine D) 0.0001 wt %
[13] = dye Yellow 5 (Sunset Yellow FCF) 0.001 wt %
[14] = dyes Red 213 (Rhodamine B) 0.00001 + Blue 1 (Brilliant Blue FCF) 0.00001 wt %
[15] = dyes Red 227 (Acid Fuchsine D) 0.0001 + Yellow 5 (Sunset Yellow FCF) 0.0001 wt %
[16] = dyes Red 401 (Violanin R) 0.0001 + Blue 1 (Brilliant Blue FCF) 0.00001 wt %

Oc1nncc(N2CCCCC2)c1N1CCCCC1 [4,5-Dipiperidino-3-hydroxypyridazine]
Remaining ratio [1]: ⊚ (95% or more of those before daylight exposure) | Change of area under ultraviolet spectrum ([1]; 290 nm to 400 nm): ⊚ (95% or more of those before daylight exposure) | Ultraviolet prevention effect (sunburn; cream, blend amount 0.0005 wt %): Δ (prominently effective or effective for 30% or more to less than 50% of the subjects) | Ultraviolet prevention effect (sunburn; cream, blend amount 0.001 wt %): ◯ (prominently effective or effective for 50% or more to less than 80% of the subjects) | Ultraviolet prevention effect (sunburn; cream, blend amount 0.01 wt %): ⊚ (prominently effective or effective for 80% or more of the subjects) | Ultraviolet prevention effect (sunburn; cream, blend amount 1 wt %): ⊚ (prominently effective or effective for 80% or more of the subjects) | Ultraviolet prevention effect (sunburn; cream, blend amount 5 wt %): ⊚ (prominently effective or effective for 80% or more of the subjects) | Ultraviolet prevention effect (sunburn; cream, blend amount 10 wt %): ⊚ (prominently effective or effective for 80% or more of the subjects) | Ultraviolet prevention effect (sunburn; cream, blend amount 20 wt %): ⊚ (prominently effective or effective for 80% or more of the subjects) | Ultraviolet prevention effect (sunburn; lotion, blend amount 0.0005 wt %): Δ (prominently effective or effective for 30% or more to less than 50% of the subjects) | Ultraviolet prevention effect (sunburn; lotion, blend amount 0.001 wt %): ◯ (prominently effective or effective for 50% or more to less than 80% of the subjects) | Ultraviolet prevention effect (sunburn; lotion, blend amount 0.01 wt %): ⊚ (prominently effective or effective for 80% or more of the subjects) | Ultraviolet prevention effect (sunburn; lotion, blend amount 1 wt %): ⊚ (prominently effective or effective for 80% or more of the subjects) | Ultraviolet prevention effect (sunburn; lotion, blend amount 5 wt %): ⊚ (prominently effective or effective for 80% or more of the subjects) | Ultraviolet prevention effect (sunburn; lotion, blend amount 10 wt %): ⊚ (prominently effective or effective for 80% or more of the subjects) | Ultraviolet prevention effect (sunburn; lotion, blend amount 20 wt %): ⊚ (prominently effective or effective for 80% or more of the subjects) | Determination (skin reaction, patch test) (skin; cream): ⊚ (mean score of 0) | Determination (skin reaction, patch test) (skin; lotion): ⊚ (mean score of 0) | Appearance (visual determination) ([2]; no sequestering agent): Δ | Appearance (visual determination) ([2]; with ethylenediamine tetraacetate trisodium 0.03): ◯ | odor determination ([3]; base perfume Rose, photostabilizer 0.05 wt %): ◯ | odor determination ([3]; base perfume Spicy, photostabilizer 0.2 wt %): ◯ | odor determination ([3]; base perfume Woody, photostabilizer 0.1 wt %): ◯ | odor determination ([3]; natural perfume Lavender oil, photostabilizer 0.1 wt %): ◯ | odor determination ([3]; natural perfume Rose oil, photostabilizer 0.05 wt %): ◯ | odor determination ([3]; natural perfume Ylang ylang oil, photostabilizer 0.2 wt %): ◯ | odor determination ([3]; synthetic perfume Citral, photostabilizer 0.1 wt %): ◯ | odor determination ([3]; synthetic perfume Linalool, photostabilizer 0.05 wt %): ◯ | odor determination ([3]; synthetic perfume Linalyl acetate, photostabilizer 0.1 wt %): ◯ | Appearance (visual determination) [4, 7]: ◯ | Remaining ratio (%) [4, 7]: 99.3% | Appearance (visual determination) [4, 8]: ◯ | Remaining ratio (%) [4, 8]: 99.0% | Appearance (visual determination) [4, 9]: ◯ | Remaining ratio (%) [4, 9]: 99.1% | Appearance (visual determination) ([4]; drug salicylic acid 0.1 wt %): ◯ | Remaining ratio (%) ([4]; drug salicylic acid 0.1 wt %): 99.6% | Δ E ([5]; no sequestering agent): 0.98 | Δ E ([5]; with ethylenediaminehydroxyethyl trisodium triacetate 0.02): 0.52 | Δ E ([5]; with ethylenediaminetetraacetate trisodium 0.02): 0.72 | Δ E ([5]; with sodium metaphosphate 0.02): 0.61 | Appearance (visual determination) [6, 10]: ◯ | Δ E [6, 10]: 1.22 | Appearance (visual determination) [6, 11]: ◯ | Δ E [6, 11]: 0.45 | Appearance (visual determination) [6, 12]: ◯ | Δ E [6, 12]: 0.53 | Appearance (visual determination) [6, 13]: ◯ | Δ E [6, 13]: 0.55 | Appearance (visual determination) [6, 14]: ◯ | Δ E [6, 14]: 1.11 | Appearance (visual determination) [6, 15]: ◯ | Δ E [6, 15]: 0.63 | Appearance (visual determination) [6, 16]: ◯ | Δ E [6, 16]: 0.38
